Patent publication EP4755888A1 (ILAb Co., Ltd., priority 2023, dated 2025)
Blank lines part the entries; values can stand above or below the compound they belong to.

Target: PD-1/PD-L1 (Homo sapiens, UniProt Q9NZQ7)
Test: TR-FRET PD-1/PD-L1 binding inhibition at the molecular level (free proteins)
Details: Tag1-PD-L1 and Tag2-PD-1 proteins, twelve concentrations from 200 nM, 2 hours at room temperature, read-out: FRET assay (IC50)
Procedure, shortened: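 HTRF read-out at 665/620 nm after 2 h at room temperature. Detection used anti-Tag1 Eu cryptate plus anti-Tag2 XL665 antibodies. Tagged PD-L1 and PD-1 proteins were pre-mixed with compound across twelve […] 1:2 dilutions starting at 200 nM.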

PD-1/PD-L1, sequence (Q9NZQ7 19-238 limits assumed): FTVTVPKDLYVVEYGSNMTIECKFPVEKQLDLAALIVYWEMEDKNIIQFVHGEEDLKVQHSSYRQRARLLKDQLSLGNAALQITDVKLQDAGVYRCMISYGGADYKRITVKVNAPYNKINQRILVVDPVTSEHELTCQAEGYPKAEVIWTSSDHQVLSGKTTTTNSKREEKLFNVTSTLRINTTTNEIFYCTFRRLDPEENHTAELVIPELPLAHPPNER

SMILES: O=C(Nc1cccc(-c2cccc(Nc3nccc4cc(CN5CC[C@@H](O)C5)cnc34)c2Cl)c1Cl)c1cc2n(n1)CCCC2NC1CCC(O)CC1 (stereo partly drawn) [Compound 233, N-(2,2'-dichloro-3'-((3-(((R)-3-hydroxypyrrolidin-1-yl)methyl)-1,7-naphthyridin-8-yl)amino)-[1,1'-biphenyl]-3-yl)-4-((4-hydroxycyclohexyl)amino)-4,5,6,7-tetrahydropyrazolo[1,5-a]pyridine-2-carboxamideide]
- IC50: 10 to 100 nM

SMILES: COCCNC1CCCn2nc(C(=O)Nc3cccc(-c4cccc(Nc5nccc6cc(CN7CC[C@@H](O)C7)cnc56)c4Cl)c3Cl)cc21 (stereo partly drawn) [Compound 234, N-(2,2'-dichloro-3'-((3-(((R)-3-hydroxypyrrolidin-1-yl)methyl)-1,7-naphthyridin-8-yl)amino)-[1,1'-biphenyl]-3-yl)-4-((2-methoxyethyl)amino)-4,5,6,7-tetrahydropyrazolo[1,5-a]pyridine-2-carboxamide]
- IC50: 10 to 100 nM

SMILES: CS(=O)(=O)NCCNC1CCCn2nc(C(=O)Nc3cccc(-c4cccc(Nc5nccc6cc(CN7CC[C@@H](O)C7)cnc56)c4Cl)c3Cl)cc21 (stereo partly drawn) [Compound 235, N-(2,2'-dichloro-3'-((3-(((R)-3-hydroxypyrrolidin-1-yl)methyl)-1,7-naphthyridin-8-yl)amino)-[1,1'-biphenyl]-3-yl)-4-((2-(methylsulfonamido)ethyl)amino)-4,5,6,7-tetrahydropyrazolo[1,5-a]pyridine-2-carboxamide]
- IC50: 10 to 100 nM

SMILES: CC(=O)N1CC2(C1)CN(C1CCCn3nc(C(=O)Nc4cccc(-c5cccc(Nc6nccc7cc(CN8CC[C@@H](O)C8)cnc67)c5Cl)c4Cl)cc31)C2 (stereo partly drawn) [Compound 236, 4-(6-acetyl-2,6-diazaspiro[3.3]heptan-2-yl)-N-(2,2'-dichloro-3'-((3-(((R)-3-hydroxypyrrolidin-1-yl)methyl)-1,7-naphthyridin-8-yl)amino)-[1,1'-biphenyl]-3-yl)-4,5,6,7-tetrahydropyrazolo[1,5-a]pyridine-2-carboxamide]
- IC50: 10 to 100 nM

SMILES: CC(C)(O)C1CN(C2CCCn3nc(C(=O)Nc4cccc(-c5cccc(Nc6nccc7cc(CN8CC[C@@H](O)C8)cnc67)c5Cl)c4Cl)cc32)C1 (stereo partly drawn) [Compound 237, N-(2,2'-dichloro-3'-((3-(((R)-3-hydroxypyrrolidin-1-yl)methyl)-1,7-naphthyridin-8-yl)amino)-[1,1'-biphenyl]-3-yl)-4-(3-(2-hydroxypropan-2-yl)azetidin-1-yl)-4,5,6,7-tetrahydropyrazolo[1,5-a]pyridine-2-carboxamide]
- IC50: 10 to 100 nM

SMILES: O=C1CCC2(CN(C3CCCn4nc(C(=O)Nc5cccc(-c6cccc(Nc7nccc8cc(CN9CC[C@@H](O)C9)cnc78)c6Cl)c5Cl)cc43)C2)N1 (stereo partly drawn) [Compound 238, N-(2,2'-dichloro-3'-((3-(((R)-3-hydroxypyrrolidin-1-yl)methyl)-1,7-naphthyridin-8-yl)amino)-[1,1'-biphenyl]-3-yl)-4-(6-oxo-2,5-diazaspiro[3.4]octan-2-yl)-4,5,6,7-tetrahydropyrazolo[1,5-a]pyridine-2-carboxamide]
- IC50: 10 to 100 nM

SMILES: O=C(O)CCCNC1CCCn2nc(C(=O)Nc3cccc(-c4cccc(Nc5nccc6cc(CN7CC[C@@H](O)C7)cnc56)c4Cl)c3Cl)cc21 (stereo partly drawn) [Compound 239, 4-((2-((2,2'-dichloro-3'-((3-(((R)-3-hydroxypyrrolidin-1-yl)methyl)-1,7-naphthyridin-8-yl)amino)-[1,1'-biphenyl]-3-yl)carbamoyl)-4,5,6,7-tetrahydropyrazolo[1,5-a]pyridin-4-yl)amino)butanoic acid]
- IC50: 10 to 100 nM

SMILES: O=C(Nc1cccc(-c2cccc(Nc3nccc4cc(CN5CC[C@@H](O)C5)cnc34)c2Cl)c1Cl)c1cc2n(n1)CCCC2N1CCCC1=O (stereo partly drawn) [Compound 240, N-(2,2'-dichloro-3'-((3-(((R)-3-hydroxypyrrolidin-1-yl)methyl)-1,7-naphthyridin-8-yl)amino)-[1,1'-biphenyl]-3-yl)-4-(2-oxopyrrolidin-1-yl)-4,5,6,7-tetrahydropyrazolo[1,5-a]pyridine-2-carboxamide]
- IC50: 10 to 100 nM

SMILES: COc1cc(-c2cccc(-c3cccc(NC(=O)c4cc5n(n4)CCC[C@@H]5NCC(=O)O)c3Cl)c2Cl)cc(F)c1CNC[C@@H]1CCC(=O)N1 [Compound 249, 2-(((S)-2-((2,2'-dichloro-3"-fluoro-5"-methoxy-4"-(((((S)-5-oxopyrrolidin-2-yl)methyl)amino)methyl)-[1,1':3',1"-terphenyl]-3-yl)carbamoyl)-4,5,6,7-tetrahydropyrazolo[1,5-a]pyridin-4-yl)amino)acetic acid]
- IC50: 10 to 100 nM

SMILES: COc1cc(-c2cccc(-c3cccc(NC(=O)c4cc5n(n4)CCC[C@H]5NCC(=O)O)c3Cl)c2Cl)cc(F)c1CNC[C@@H]1CCC(=O)N1 [Compound 250, 2-(((R)-2-((2,2'-dichloro-3"-fluoro-5"-methoxy-4"-(((((S)-5-oxopyrrolidin-2-yl)methyl)amino)methyl)-[1,1':3',1 "-terphenyl]-3-yl)carbamoyl)-4,5,6,7-tetrahydropyrazolo[1,5-a]pyridin-4-yl)amino)acetic acid]
- IC50: 10 to 100 nM

SMILES: Cc1c(NC(=O)c2cc3n(n2)CCC[C@@H]3NCCO)cccc1-c1cccc(NC(=O)c2cc3n(n2)CCC[C@@H]3NCCO)c1C [Compound 253, (4S,4'S)-N,N'-(2,2'-dimethyl-[1,1'-biphenyl]-3,3'-diyl)bis(4-((2-hydroxyethyl)amino)-4,5,6,7-tetrahydropyrazolo[1,5-a]pyridine-2-carboxamide)]
- IC50: < 10 nM

SMILES: Cc1nc(Nc2cccc(-c3cccc(NC(=O)c4cc5n(n4)CCC[C@@H]5N4CCC(C(=O)O)CC4)c3Cl)c2Cl)c2ncccc2n1 [Compound 254, (S)-1-(2-((2,2'-dichloro-3'-((2-methylpyrido[3,2-d]pyrimidin-4-yl)amino)-[1,1'-biphenyl]-3-yl)carbamoyl)-4,5,6,7-tetrahydropyrazolo[1,5-a]pyridin-4-yl)piperidine-4-carboxylic acid]
- IC50: 10 to 100 nM

SMILES: Cc1nc(Nc2cccc(-c3cccc(NC(=O)c4cc5n(n4)CCC[C@H]5N4CCC(C(=O)O)CC4)c3Cl)c2Cl)c2ncccc2n1 [Compound 255, (R)-1-(2-((2,2'-dichloro-3'-((2-methylpyrido[3,2-d]pyrimidin-4-yl)amino)-[1,1'-biphenyl]-3-yl)carbamoyl)-4,5,6,7-tetrahydropyrazolo[1,5-a]pyridin-4-yl)piperidine-4-carboxylic acid]
- IC50: 10 to 100 nM

Next, values leading:

- IC50: < 10 nM
SMILES: CC(=O)NCCN[C@H]1CCCn2nc(C(=O)Nc3cccc(-c4cccc(NC(=O)c5ccc(CNCCO)cn5)c4Cl)c3Cl)cc21 [Compound 241, (S)-4-((2-acetamidoethyl)amino)-N-(2,2'-dichloro-3'-(5-(((2-hydroxyethyl)amino)methyl)picolinamido)-[1,1'-biphenyl]-3-yl)-4,5,6,7-tetrahydropyrazolo[1,5-a]pyridine-2-carboxamide]

- IC50: < 10 nM
SMILES: CC(=O)NCCN[C@@H]1CCCn2nc(C(=O)Nc3cccc(-c4cccc(NC(=O)c5ccc(CNCCO)cn5)c4Cl)c3Cl)cc21 [Compound 242, (R)-4-((2-acetamidoethyl)amino)-N-(2,2'-dichloro-3'-(5-(((2-hydroxyethyl)amino)methyl)picolinamido)-[1,1'-biphenyl]-3-yl)-4,5,6,7-tetrahydropyrazolo[1,5-a]pyridine-2-carboxamide]

- IC50: < 10 nM
SMILES: O=C(Nc1cccc(-c2cccc(NC(=O)c3cc4n(n3)CCC[C@@H]4N3CC[C@@H](O)C3)c2Cl)c1Cl)c1ccc(CNCCO)cn1 [Compound 243, (S)-N-(2,2'-dichloro-3'-(5-(((2-hydroxyethyl)amino)methyl)picolinamido)-[1,1'-biphenyl]-3-yl)-4-((R)-3-hydroxypyrrolidin-1-yl)-4,5,6,7-tetrahydropyrazolo[1,5-a]pyridine-2-carboxamide]

- IC50: < 10 nM
SMILES: O=C(Nc1cccc(-c2cccc(NC(=O)c3cc4n(n3)CCC[C@H]4N3CC[C@@H](O)C3)c2Cl)c1Cl)c1ccc(CNCCO)cn1 [Compound 244, (R)-N-(2,2'-dichloro-3'-(5-(((2-hydroxyethyl)amino)methyl)picolinamido)-[1,1'-biphenyl]-3-yl)-4-((R)-3-hydroxypyrrolidin-1-yl)-4,5,6,7-tetrahydropyrazolo[1,5-a]pyridine-2-carboxamide]

- IC50: < 10 nM
SMILES: COc1cc(-c2cccc(-c3cccc(NC(=O)c4cc5n(n4)CCC[C@@H]5NCC(=O)O)c3Cl)c2Cl)cc(F)c1CNCCO [Compound 245, (S)-2-((2-((2,2'-dichloro-3"-fluoro-4"-(((2-hydroxyethyl)amino)methyl)-5"-methoxy-[1,1':3',1"-terphenyl]-3-yl)carbamoyl)-4,5,6,7-tetrahydropyrazolo[1,5-a]pyridin-4-yl)amino)acetic acid]

- IC50: < 10 nM
SMILES: COc1cc(-c2cccc(-c3cccc(NC(=O)c4cc5n(n4)CCC[C@H]5NCC(=O)O)c3Cl)c2Cl)cc(F)c1CNCCO [Compound 246, (R)-2-((2-((2,2'-dichloro-3"-fluoro-4"-(((2-hydroxyethyl)amino)methyl)-5"-methoxy-[1,1':3',1"-terphenyl]-3-yl)carbamoyl)-4,5,6,7-tetrahydropyrazolo[1,5-a]pyridin-4-yl)amino)acetic acid]

- IC50: < 10 nM
SMILES: COc1cc(-c2cccc(-c3cccc(NC(=O)c4cc5n(n4)CCC[C@@H]5NCC(=O)O)c3Cl)c2Cl)cc(F)c1CN1CC[C@@H](O)C1 [Compound 247, 2-(((S)-2-((2,2'-dichloro-3"-fluoro-4"-(((R)-3-hydroxypyrrolidin-1-yl)methyl)-5"-methoxy-[1,1':3',1"-terphenyl]-3-yl)carbamoyl)-4,5,6,7-tetrahydropyrazolo[1,5-a]pyridin-4-yl)amino)acetic acid]

- IC50: < 10 nM
SMILES: COc1cc(-c2cccc(-c3cccc(NC(=O)c4cc5n(n4)CCC[C@H]5NCC(=O)O)c3Cl)c2Cl)cc(F)c1CN1CC[C@@H](O)C1 [Compound 248, 2-(((R)-2-((2,2'-dichloro-3"-fluoro-4"-(((R)-3-hydroxypyrrolidin-1-yl)methyl)-5"-methoxy-[1,1':3',1"-terphenyl]-3-yl)carbamoyl)-4,5,6,7-tetrahydropyrazolo[1,5-a]pyridin-4-yl)amino)acetic acid]
